These results are taken from US8722849B2, “Polypeptides” (Novo Nordisk A/S, priority 2011, dated 2014).

SMILES strings stand for the structures. Converted amounts (≈) assume the structure as drawn. Like-named read-outs stand apart in the source and are kept apart here. Starred links: 1 amine or outer side, 2 acyl side, 3 side chain; linkers in the order of their positions; H or OH if unused. Positions of bridges follow the written chain, without caps; N, C: chain ends. Residues, ends and D or L forms follow the SMILES beside them. Groups on a side chain read outwards from the residue. *: point of attachment. C20 diacid = O=C(O)CCCCCCCCCCCCCCCCCCC(=O)*; γGlu = O=C(O)[C@H](CCC(=O)[*:2])N[*:1]; AEEA = NCCOCCOCC(=O)O

The nature of this series: Assay (IV) determination of solubility. It is filed as physicochemical. In short, it runs like this:
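Stock ~500 nmol/ml in water; 1:1 with 100 mM buffer, pH 3.0–8.0 (glycylglycine ≤5.0, bistrispropane ≥6.0); 18 h RT; spin; HPLC quantitation of soluble polypeptide.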

The mark [1] stands for this setting: pH 3, pH 3.0, read-out: Solubility pH 3.0.
The mark [2] stands for this setting: pH 4, pH 4.0, 18 hours at room temperature, Table 2, read-out: Solubility pH 4.0.
Where [3] appears, read: pH 4, pH 4.0, read-out: Solubility pH 4.0.
Where [4] appears, read: pH 5, pH 5.0, read-out: Solubility pH 5.0.
Setting [5] is: pH 6, pH 6.0, read-out: Solubility pH 6.0.
Setting [6] is: pH 6.5, pH 6.5, read-out: Solubility pH 6.5.
The mark [7] stands for this setting: pH 7, pH 7.0, read-out: Solubility pH 7.0.
Setting [8] is: pH 7.5, pH 7.5, read-out: Solubility pH 7.5.
[9] abbreviates: pH 7, pH 7.0, 18 hours at room temperature, Table 3, read-out: Solubility pH 7.0.
Where [10] appears, read: pH 8, pH 8.0, read-out: Solubility pH 8.0.

For orientation: solubility means how much of the substance goes into solution per volume. On to `CC[C@H](C)[C@H](NC(=O)[C@H](CCCCNC(=O)COCCOCCNC(=O)COCCOCCNC(=O)CC[C@H](NC(=O)CCCCCCCCCCCCCCCCCCC(=O)O)C(=O)O)NC(=O)CNC(=O)[C@H](Cc1ccccc1)NC(=O)[C@H](CC(N)=O)NC(=O)[C@H](CC(N)=O)NC(=O)[C@H](CO)NC(=O)[C@H](CO)NC(=O)[C@H](Cc1c[nH]cn1)NC(=O)[C@H](Cc1c[nH]cn1)NC(=O)[C@H](CC(C)C)NC(=O)[C@H](Cc1ccccc1)NC(=O)[C@H](CCC(=O)O)NC(=O)[C@H](C)NC(=O)[C@H](CC(C)C)NC(=O)[C@H](CCCNC(=N)N)NC(=O)[C@H](CCC(N)=O)NC(=O)[C@@H](NC(=O)[C@H](C)NC(=O)[C@@H]1CSSC[C@H](NC(=O)[C@@H](N)CCCCN)C(=O)N[C@@H](CC(N)=O)C(=O)N[C@@H]([C@@H](C)O)C(=O)N[C@@H](C)C(=O)N[C@@H]([C@@H](C)O)C(=O)N1)[C@@H](C)O)C(=O)N[C@@H](CC(C)C)C(=O)N[C@@H](CO)C(=O)N[C@@H](CO)C(=O)N[C@H](C(=O)N[C@@H](CC(N)=O)C(=O)N[C@H](C(=O)NCC(=O)N[C@@H](CO)C(=O)N[C@@H](Cc1c[nH]cn1)C(=O)N[C@H](C(=O)N[C@@H](Cc1ccc(O)cc1)C(N)=O)[C@@H](C)O)C(C)C)[C@@H](C)O` [Example 142, N-epsilon25-[2-(2-{2-[2-(2-{2-[(S)-4-Carboxy-4-(19-carboxyheptadecanoylamino)butyrylamino]ethoxy}ethoxy)acetylamino]ethoxy}ethoxy)acetyl]-[Glu14,His17,Lys25,Ser28,Ser29,His35]-pramlintide] (H-KCNTATCATQRLAEFLHHSSNNFGK([AEEA-AEEA-γGlu-C20 diacid])ILSSTNVGSHTY-NH2; disulfide 2-7), for which the solubility was over 200 µM under setting [1]; over 200 µM under setting [2]; over 200 µM under setting [3]; 185 µM (≈ 884 µg/mL) under setting [4]; 118 µM (≈ 564 µg/mL) under setting [5]; 1 µM (≈ 4.78 µg/mL) under setting [6]. Moreover, the solubility by setting is: under setting [7], 1 µM (≈ 4.78 µg/mL); under setting [8], 1 µM (≈ 4.78 µg/mL).
For the compound `CC[C@H](C)[C@H](NC(=O)[C@@H]1CCCN1C(=O)CNC(=O)[C@H](Cc1ccccc1)NC(=O)[C@H](CC(N)=O)NC(=O)[C@H](CCC(N)=O)NC(=O)[C@H](CO)NC(=O)[C@H](CO)NC(=O)[C@H](Cc1c[nH]cn1)NC(=O)[C@H](CCCNC(=N)N)NC(=O)[C@H](CC(C)C)NC(=O)[C@H](Cc1ccccc1)NC(=O)[C@H](CCC(=O)O)NC(=O)[C@H](C)NC(=O)[C@H](CC(C)C)NC(=O)[C@H](CCCNC(=N)N)NC(=O)[C@H](CCC(N)=O)NC(=O)[C@@H](NC(=O)[C@H](C)NC(=O)[C@@H]1CSSC[C@H](NC(=O)[C@H](CCCNC(=N)N)NC(=O)[C@H](CCC(=O)O)NC(=O)[C@H](CCC(=O)O)NC(=O)CC[C@H](NC(=O)CCCCCCCCCCCCCCCCCCC(=O)O)C(=O)O)C(=O)N[C@@H](CC(N)=O)C(=O)N[C@@H]([C@@H](C)O)C(=O)N[C@@H](C)C(=O)N[C@@H]([C@@H](C)O)C(=O)N1)[C@@H](C)O)C(=O)N[C@@H](CC(C)C)C(=O)N1CCC[C@H]1C(=O)N1CCC[C@H]1C(=O)N[C@H](C(=O)N[C@@H](CCC(N)=O)C(=O)N[C@H](C(=O)NCC(=O)N[C@@H](CO)C(=O)N[C@@H](CCC(N)=O)C(=O)N[C@H](C(=O)N1CCC[C@H]1C(N)=O)[C@@H](C)O)C(C)C)[C@@H](C)O` [Example 159, N-alpha-[(S)-4-Carboxy-4-(19-carboxynonadecanoylamino)butyryl]-Glu-Glu-[Arg1,Glu14,Arg17,Gln21,Gln31,Gln35,Pro37]-pramlintide] ({C20 diacid-γGlu}-EERCNTATCATQRLAEFLRHSSQNFGPILPPTQVGSQTP-NH2; disulfide 4-9), the solubility is over 200 µM under setting [1]; over 200 µM under setting [2]; over 200 µM under setting [3]; over 200 µM under setting [4]; over 200 µM under setting [5]; over 200 µM under setting [6]. The solubility was over 200 µM under setting [9], over 200 µM under setting [7], over 200 µM under setting [8] and over 200 µM under setting [10].
In the case of `CC[C@H](C)[C@H](NC(=O)[C@H](CCCCNC(=O)COCCOCCNC(=O)COCCOCCNC(=O)CC[C@H](NC(=O)CCCCCCCCCCCCCCCCCCC(=O)O)C(=O)O)NC(=O)CNC(=O)[C@H](Cc1ccccc1)NC(=O)[C@H](CC(N)=O)NC(=O)[C@H](CO)NC(=O)[C@H](CO)NC(=O)[C@H](CO)NC(=O)[C@H](Cc1c[nH]cn1)NC(=O)[C@H](Cc1c[nH]cn1)NC(=O)[C@H](CC(C)C)NC(=O)[C@H](Cc1ccccc1)NC(=O)[C@H](CCC(=O)O)NC(=O)[C@H](C)NC(=O)[C@H](CC(C)C)NC(=O)[C@H](CCCNC(=N)N)NC(=O)[C@H](CCC(N)=O)NC(=O)[C@@H](NC(=O)[C@H](C)NC(=O)[C@@H]1CSSC[C@H](NC(=O)[C@@H](N)CCCCN)C(=O)N[C@@H](CC(N)=O)C(=O)N[C@@H]([C@@H](C)O)C(=O)N[C@@H](C)C(=O)N[C@@H]([C@@H](C)O)C(=O)N1)[C@@H](C)O)C(=O)N[C@@H](CC(C)C)C(=O)N[C@@H](CO)C(=O)N[C@@H](CO)C(=O)N[C@H](C(=O)N[C@@H](CC(N)=O)C(=O)N[C@H](C(=O)NCC(=O)N[C@@H](CO)C(=O)N[C@@H](Cc1c[nH]cn1)C(=O)N[C@H](C(=O)N[C@@H](Cc1ccc(O)cc1)C(N)=O)[C@@H](C)O)C(C)C)[C@@H](C)O` [Example 133, N-epsilon25-[2-(2-{2-[2-(2-{2-[(S)-4-Carboxy-4-(19-carboxyheptadecanoylamino)butyrylamino]ethoxy}ethoxy)acetylamino]ethoxy}ethoxy)acetyl]-[Glu14,His17,Ser21,Lys25,Ser28,Ser29.His35]-pramlintide] (H-KCNTATCATQRLAEFLHHSSSNFGK([AEEA-AEEA-γGlu-C20 diacid])ILSSTNVGSHTY-NH2; disulfide 2-7), the solubility by setting is: under setting [1], over 200 µM; under setting [2], over 200 µM; under setting [3], over 200 µM; under setting [4], 107 µM (≈ 509 µg/mL); under setting [5], 1 µM (≈ 4.75 µg/mL); under setting [6], 1 µM (≈ 4.75 µg/mL). Moreover, the solubility under setting [7] was 1 µM (≈ 4.75 µg/mL) and the solubility under setting [8] was determined as 1 µM (≈ 4.75 µg/mL).
As to `CC[C@H](C)[C@H](NC(=O)[C@@H]1CCCN1C(=O)CNC(=O)[C@H](Cc1ccccc1)NC(=O)[C@H](CC(N)=O)NC(=O)[C@H](C)NC(=O)[C@H](CO)NC(=O)[C@H](CO)NC(=O)[C@H](Cc1c[nH]cn1)NC(=O)[C@H](Cc1c[nH]cn1)NC(=O)[C@H](CC(C)C)NC(=O)[C@H](Cc1ccccc1)NC(=O)[C@H](CCC(=O)O)NC(=O)[C@H](C)NC(=O)[C@H](CC(C)C)NC(=O)[C@H](CCCNC(=N)N)NC(=O)[C@H](CCC(N)=O)NC(=O)[C@@H](NC(=O)[C@H](C)NC(=O)[C@@H]1CSSC[C@H](NC(=O)[C@H](CCCCN)NC(=O)COCCOCCNC(=O)COCCOCCNC(=O)CC[C@H](NC(=O)CCCCCCCCCCCCCCCCCCC(=O)O)C(=O)O)C(=O)N[C@@H](CC(N)=O)C(=O)N[C@@H]([C@@H](C)O)C(=O)N[C@@H](C)C(=O)N[C@@H]([C@@H](C)O)C(=O)N1)[C@@H](C)O)C(=O)N[C@@H](CC(C)C)C(=O)N1CCC[C@H]1C(=O)N1CCC[C@H]1C(=O)N[C@H](C(=O)N[C@@H](CC(N)=O)C(=O)N[C@H](C(=O)NCC(=O)N[C@@H](CO)C(=O)N[C@@H](CC(N)=O)C(=O)N[C@H](C(=O)N1CCC[C@H]1C(N)=O)[C@@H](C)O)C(C)C)[C@@H](C)O` [Example 169, N-alpha-[2-(2-{2-[2-(2-{2-[(S)-4-Carboxy-4-(19-carboxyheptadecanoylamino)butyrylamino]ethoxy}ethoxy)acetylamino]ethoxy}ethoxy)acetyl]-[Glu14,His17,Ala21,Pro37]-pramlintide] ({C20 diacid-γGlu-AEEA-AEEA}-KCNTATCATQRLAEFLHHSSANFGPILPPTNVGSNTP-NH2; disulfide 2-7), the solubility is, setting by setting: under setting [1], over 200 µM; under setting [2], over 200 µM; under setting [3], over 200 µM; under setting [4], over 200 µM; under setting [5], over 200 µM; under setting [6], over 200 µM. Further, the solubility was over 200 µM under setting [9], over 200 µM under setting [7], over 200 µM under setting [8] and over 200 µM under setting [10].
Consider `CC[C@H](C)[C@H](NC(=O)[C@@H]1CCCN1C(=O)CNC(=O)[C@H](Cc1ccccc1)NC(=O)[C@H](CC(N)=O)NC(=O)[C@H](CCCCNC(=O)COCCOCCNC(=O)COCCOCCNC(=O)CC[C@H](NC(=O)CCCCCCCCCCCCCCCCCCC(=O)O)C(=O)O)NC(=O)[C@H](CO)NC(=O)[C@H](CO)NC(=O)[C@H](Cc1c[nH]cn1)NC(=O)[C@H](Cc1c[nH]cn1)NC(=O)[C@H](CC(C)C)NC(=O)[C@H](Cc1ccccc1)NC(=O)[C@H](CC(N)=O)NC(=O)[C@H](C)NC(=O)[C@H](CC(C)C)NC(=O)[C@H](CCCNC(=N)N)NC(=O)[C@H](CCC(N)=O)NC(=O)[C@@H](NC(=O)[C@H](C)NC(=O)[C@@H]1CSSC[C@H](NC(=O)[C@@H](N)CCCCN)C(=O)N[C@@H](CC(N)=O)C(=O)N[C@@H]([C@@H](C)O)C(=O)N[C@@H](C)C(=O)N[C@@H]([C@@H](C)O)C(=O)N1)[C@@H](C)O)C(=O)N[C@@H](CC(C)C)C(=O)N[C@@H](CO)C(=O)N1CCC[C@H]1C(=O)N[C@H](C(=O)N[C@@H](CC(N)=O)C(=O)N[C@H](C(=O)NCC(=O)N[C@@H](CO)C(=O)N[C@@H](Cc1c[nH]cn1)C(=O)N[C@H](C(=O)N[C@@H](Cc1ccc(O)cc1)C(N)=O)[C@@H](C)O)C(C)C)[C@@H](C)O` [Example 141, N-epsilon21-[2-(2-{2-[2-(2-{2-[(S)-4-Carboxy-4-(19-carboxyheptadecanoylamino)butyrylamino]ethoxy}ethoxy)acetylamino]ethoxy}ethoxy)acetyl]-[His17,Lys21,Ser28,His35]-pramlintide] (H-KCNTATCATQRLANFLHHSSK([AEEA-AEEA-γGlu-C20 diacid])NFGPILSPTNVGSHTY-NH2; disulfide 2-7), for which the solubility is over 200 µM under setting [1]; over 200 µM under setting [3]; over 200 µM under setting [4]; 84 µM (≈ 400 µg/mL) under setting [5]; 3 µM (≈ 14.3 µg/mL) under setting [6]; 2 µM (≈ 9.52 µg/mL) under setting [7]. Besides, the solubility under setting [8] was determined as 1 µM (≈ 4.76 µg/mL).
